Measured values as given in patent US20030171377A1, “Antidiabetic agents” (priority 2001, published 2003).

Key:
[1] = tested on: promoter/enhancer of the murine aP2 gene (PPAR-γ ligands); test: 3T3-L1 Transient Reporter Assay (AD3T3-L1 Reporter), Test E; settings: for AD3T3-L1 Reporter Max. % Rosi: maximal response relative to rosiglitazone
PPAR alpha = target: T1, PPAR alpha (Homo sapiens, UniProt Q07869); test: HepG2-hALPHA assay (PPAR alpha); type: cell-based; settings: HepG2 cells
T1 construct: expressed in transfected cells; host or cells: HepG2
T1 sequence (Q07869 1-468): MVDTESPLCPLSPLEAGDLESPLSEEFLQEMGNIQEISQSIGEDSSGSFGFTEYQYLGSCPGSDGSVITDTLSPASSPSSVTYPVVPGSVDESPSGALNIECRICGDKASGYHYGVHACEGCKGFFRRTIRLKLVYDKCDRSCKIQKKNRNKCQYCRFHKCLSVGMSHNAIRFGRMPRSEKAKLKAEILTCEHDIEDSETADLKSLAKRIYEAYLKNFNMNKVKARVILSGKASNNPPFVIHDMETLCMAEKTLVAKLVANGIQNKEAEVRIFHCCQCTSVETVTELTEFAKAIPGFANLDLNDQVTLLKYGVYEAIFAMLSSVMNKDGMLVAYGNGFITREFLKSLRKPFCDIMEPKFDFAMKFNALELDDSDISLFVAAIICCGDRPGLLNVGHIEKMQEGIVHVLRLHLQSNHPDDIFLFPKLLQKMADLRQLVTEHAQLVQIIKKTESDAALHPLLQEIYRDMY

[2] = tested on: Ob/Ob diabetic mouse model; test: In vivo glucose lowering, Ob/Ob diabetic mouse model; settings: for In vivo % Rosiglitazone: glucose effect relative to rosiglitazone
PPAR gamma = target: T2, PPAR gamma (Mus musculus, UniProt P37238); test: HepG2-mGAMMA assay (PPAR gamma); type: cell-based; settings: HepG2 cells
T2 construct: expressed in transfected cells; host or cells: HepG2
T2 sequence (P37238 1-505): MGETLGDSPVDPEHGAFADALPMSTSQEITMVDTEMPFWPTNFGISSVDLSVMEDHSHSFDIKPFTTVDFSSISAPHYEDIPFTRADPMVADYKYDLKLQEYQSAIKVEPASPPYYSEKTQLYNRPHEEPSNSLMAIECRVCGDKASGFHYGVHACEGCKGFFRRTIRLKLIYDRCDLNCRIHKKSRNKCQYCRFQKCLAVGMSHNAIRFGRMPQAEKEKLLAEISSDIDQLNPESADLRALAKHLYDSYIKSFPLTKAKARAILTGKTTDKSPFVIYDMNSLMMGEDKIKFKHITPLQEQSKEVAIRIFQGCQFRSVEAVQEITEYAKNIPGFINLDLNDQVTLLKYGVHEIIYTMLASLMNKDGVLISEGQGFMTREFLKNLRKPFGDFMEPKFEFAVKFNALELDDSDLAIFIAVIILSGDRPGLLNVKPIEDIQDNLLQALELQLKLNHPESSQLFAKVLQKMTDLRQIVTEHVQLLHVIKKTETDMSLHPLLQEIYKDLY

Which “AD3T3-L1 Reporter Max. % Rosi” value [1] does the source give for `Cc1oc(-c2ccccc2)nc1CCCc1ccc(CC(C(=O)O)n2ccnn2)cc1` (stereo not shown) [Example 0338227] here?
Its value is 59 % Rosi.

For `CCCCCCCN(CCc1ccc(SC(C)(C)C(=O)O)cc1)C(=O)Nc1ccc(F)cc1F` [GW9578], which “HepG2-hAlpha Max. Res. % GW9578” value (PPAR alpha) is on record?
Its value is 100.0 % GW9578.

What about the “HepG2-hAlpha concentration of Max. Res. (uM, in brackets)” value (PPAR alpha) of the same compound?
The value was 1 µM.

For `Cc1oc(-c2ccccc2)nc1CCCc1ccc(CC(C(=O)O)n2cccn2)cc1` (racemic) [Example 0339165, 3-{4-[3-(5-Methyl-2-phenyl-oxazol-4-yl)-propyl]-phenyl}-2-pyrazol-1-yl-propionic acid], which “In vivo % Rosiglitazone” value [2] is on record?
The value was 102.49%.

And the “AD3T3-L1 Reporter Max. % Rosi” value [1]?
The value was 90 % Rosi.

For `Cc1oc(-c2ccccc2)nc1CCCc1ccc(CC(C(=O)O)n2cncn2)cc1` (stereo not shown) [Example 0336683], which “In vivo Δ Glucose@ 20 mg/kg” value ([2]; 20 mg/kg) is on record?
The value was −53.

What about the “In vivo % Rosiglitazone” value [2] of the same compound?
Its value is 24.38%.

And the EC50 ([1]; Mus musculus, 3T3-L1, read-out: AD3T3-L1 Reporter EC50(nM))?
Its EC50 is 9700 nM.

And the “AD3T3-L1 Reporter Max. % Rosi” value [1]?
Its value is 62.8 % Rosi.

For `CN(CCOc1ccc(CC2SC(=O)NC2=O)cc1)c1ccccn1` (stereo not shown) [Rosiglitazone], which “HepG2-mGamma Max. Res. % Rosi.” value (PPAR gamma) is on record?
The value was 100.0 % Rosi.

For `Cc1oc(-c2ccccc2)nc1CCOc1ccc(CC(C)(C)C(=O)O)cc1` [Example 40, 2,2-Dimethyl-3-{4-[2-(5-methyl-2-phenyl-oxazol-4-yl)-ethoxy]-phenyl}-propionic acid], which melting point is on record?
The melting point was 133 to 134 °C.

For `Cc1oc(-c2ccccc2)nc1CCOc1ccc(C[C@@](C)(C(=O)O)n2ccc(Br)c2)cc1` (stereo in doubt) [Example 58, 2-(3-Bromo-pyrrol-1-yl)-2-methyl-3-{4-[2-(5-methyl-2-phenyl-oxazol-4-yl)-ethoxy]-phenyl}-propionic acid], which melting point is on record?
The melting point was 158 to 159 °C.

Which melting point does the source give for `Cc1oc(-c2ccccc2)nc1CCOc1ccc(C[C@@H](C(=O)O)n2cccc2C(=O)C(F)(F)F)cc1` [Example 12, (S)-3-{4-[2-(5-Methyl-2-phenyl-oxazol-4-yl)-ethoxy]-phenyl}-2-[2-(2,2,2-trifluoro-acetyl)-pyrrol-1-yl]-propionic acid] here?
The melting point was 187 to 188 °C.
